Results as given in patent publication US8853246B2 (Dow AgroSciences LLC, priority 2009, dated 2014).

What was measured:
[1] = system: Green Peach Aphid (Myzus Persicae); assay: Insecticidal test for green peach aphid in foliar spray assay (col. MYZUPE); assay type: in vivo; conditions: Myzus persicae, 72 h, green peach aphid, read-out: MYZUPE 200 ppm (Corrected % Control, rating)
How it was run: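 Corrected % control derives from microscope counts of live aphids per plant, treated against diluent-only checks, 3 days after foliar spraying at ~25 °C and 40% RH. Test solution was 200 ppm in 0.025% aqueous Tween 20, applied to both leaf sides of infested cabbage seedlings, four pots each.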

[2] = system: Sweetpotato Whitefly-Crawler (Bemisia Tabaci); assay: Insecticidal test for sweetpotato whitefly-crawler in foliar spray assay (col. BEMITA); assay type: in vivo; conditions: Bemisia tabaci, sweetpotato whitefly-crawler, read-out: BEMITA 200 ppm (Corrected % Control, rating)
How it was run: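 Percent control, Abbott-corrected against diluent-sprayed plants, from microscope counts of live nymphs 8-9 days after treatment. Test solution at 200 ppm in 0.025% aqueous Tween 20 applied to both leaf sides of egg-infested cotton after a 5-6 day hatch period (82° F, 50% RH).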

SMILES	pest or weed control at 200 ppm [1] [%]	pest or weed control at 200 ppm [2] [%]	melting point [°C]
CN(C(=O)C(C)(C)C)c1cnc(-c2cncc(F)c2)s1 [Compound 33]	< 80	80 to 100	153 to 155
CSCC(C)(C)C(=O)N(C)c1sc(-c2cccnc2)nc1C [Compound 34]	80 to 100	80 to 100	83 to 88
Cc1nc(-c2cncc(F)c2)sc1N(C)C(=O)C(C)C [Compound 41]	80 to 100	80 to 100	123
CSCC(C)(C)C(=O)N(C)c1sc(-c2cncnc2)nc1C [Compound 53]	< 80	80 to 100	123 to 125
CSCCC(=O)Nc1sc(-c2cccnc2)nc1C [Compound 55]	80 to 100	80 to 100	136 to 139
CSCC(C)C(=O)Nc1sc(-c2cccnc2)nc1C (stereo not drawn) [Compound 56]	80 to 100	80 to 100	132 to 136
Cc1nc(-c2cccnc2)sc1NC(=O)C(C)C [Compound 58]	80 to 100	80 to 100	159 to 162
CSCC(C)(C)C(=O)N(C)c1cnc(-c2ccc(Cl)nc2)s1 [Compound 68]	80 to 100	80 to 100	104 to 108
CC(C)C(=O)N(C)c1cnc(-c2ccc(Cl)nc2)s1 [Compound 69]	< 80	80 to 100	155 to 159
CSCCC(=O)N(C)c1cnc(-c2ccc(Cl)nc2)s1 [Compound 70]	< 80	< 80	160 to 164
CC(C[S+](C)[O-])C(=O)N(C)c1cnc(-c2cccnc2)s1 (stereo not drawn) [Compound 79]	80 to 100	< 80	135 to 140
CN(C(=O)C(C)(C)C[S+](C)[O-])c1cnc(-c2cccnc2)s1 (stereo not drawn) [Compound 80]	80 to 100	80 to 100	118 to 122
CC(C[S+](C)[O-])C(=O)N(C)c1cnc(-c2cncc(F)c2)s1 (stereo not drawn) [Compound 81]	80 to 100	80 to 100	68 to 70
CN(C(=O)NCC[S+](C)[O-])c1cnc(-c2cncc(F)c2)s1 (stereo not drawn) [Compound 82]	80 to 100	< 80	202 to 203
CN(CC[S+](C)[O-])C(=O)N(C)c1cnc(-c2cncc(F)c2)s1 (stereo not drawn) [Compound 83]	80 to 100	80 to 100	95 to 99
CN(C(=O)C(C)(C)C[S+](C)[O-])c1cnc(-c2cncc(F)c2)s1 (stereo not drawn) [Compound 85]	80 to 100	80 to 100	155 to 159
Cc1nc(-c2cccnc2)sc1NC(=O)C(C)C[S+](C)[O-] (stereo not drawn) [Compound 92]	80 to 100	< 80	160 to 163
Cc1nc(-c2cccnc2)sc1NC(=O)C(C)(C)C[S+](C)[O-] (stereo not drawn) [Compound 94]	80 to 100	< 80	55 to 60
Cc1nc(-c2cncc(F)c2)sc1N(C)C(=O)C(C)CS(C)(=O)=O (stereo not drawn) [Compound 98]	80 to 100	80 to 100	105 to 109

SMILES	pest or weed control at 200 ppm [1] [%]	pest or weed control at 200 ppm [2] [%]	melting point [°C]
Cc1nc(-c2cccnc2)sc1NC(=O)C(C)CS(C)(=O)=O (stereo not drawn) [Compound 99]	80 to 100	80 to 100	175 to 180
Cc1nc(-c2cccnc2)sc1NC(=O)CCS(C)(=O)=O [Compound 100]	80 to 100	< 80	222 to 224
Cc1nc(-c2cccnc2)sc1NC(=O)C(C)(C)CS(C)(=O)=O [Compound 101]	80 to 100	80 to 100	134 to 136
CSCCC(=O)Nc1sc(-c2cccnc2)nc1C(F)(F)F [Compound 133]	80 to 100	< 80	131 to 133
CC(C)C(=O)Nc1sc(-c2cccnc2)nc1C(F)(F)F [Compound 136]	80 to 100	< 80	130 to 131
Cc1nc(-c2cncc(F)c2)sc1NC(=O)C(C)C [Compound 140]	80 to 100	< 80	155 to 159
CSCC(C)C(=O)Nc1sc(-c2cncc(F)c2)nc1C (stereo not drawn) [Compound 141]	80 to 100	80 to 100	110 to 113
CSCCC(=O)Nc1sc(-c2cncc(F)c2)nc1C [Compound 142]	80 to 100	< 80	126 to 130
Cc1nc(-c2cncc(F)c2)sc1NC(=O)C(C)(C)C[S+](C)[O-] (stereo not drawn) [Compound 143]	80 to 100	< 80	160 to 163
Cc1nc(-c2cncc(F)c2)sc1NC(=O)C(C)(C)CS(C)(=O)=O [Compound 144]	80 to 100	< 80	157 to 167
Cc1nc(-c2cncc(F)c2)sc1NC(=O)C(C)C[S+](C)[O-] (stereo not drawn) [Compound 145]	80 to 100	< 80	194 to 198
Cc1nc(-c2cncc(F)c2)sc1NC(=O)C(C)CS(C)(=O)=O (stereo not drawn) [Compound 146]	80 to 100	< 80	187 to 189
Cc1nc(-c2cncc(F)c2)sc1NC(=O)CC[S+](C)[O-] (stereo not drawn) [Compound 147]	80 to 100	< 80	181 to 184
Cc1nc(-c2cncc(F)c2)sc1NC(=O)CCS(C)(=O)=O [Compound 148]	80 to 100	< 80	230 to 232
Cc1nc(-c2ccc(Cl)nc2)sc1NC(=O)OC(C)(C)C [Compound 149]	< 80	< 80	154 to 157
Cc1cncc(-c2nc(C)c(NC(=O)OC(C)(C)C)s2)c1 [Compound 150]	80 to 100	< 80	135 to 138
Cc1nc(-c2cncc(C#N)c2)sc1NC(=O)OC(C)(C)C [Compound 151]	< 80	< 80	171 to 174
CSCC(C)C(=O)N(C(=O)OC(C)(C)C)c1sc(-c2ccc(Cl)nc2)nc1C (stereo not drawn) [Compound 153]	< 80	80 to 100	82 to 85
CSCC(C)C(=O)N(C(=O)OC(C)(C)C)c1sc(-c2cncc(C#N)c2)nc1C (stereo not drawn) [Compound 158]	< 80	< 80	125 to 128
